Measured values reported in patent US9067896B2, “Crystalline forms of 3-(2,6-dichloro-3,5-dimethoxy-phenyl)-1-{6-[4-(4-ethyl-piperazin-1-yl) -phenylamino]-pyrimidin-4-yl}-1-methyl-urea and salts thereof” (Novartis AG, priority 2009, dated 2015).
≈ marks a conversion by molar mass, not a printed value. Counter-ions that a name gives are not always drawn.

What was measured:
Assay type in all cases: physicochemical
Solution stability = conditions: 1 week at 50° C.
Description: The solution stability of the free base was tested in buffers ranging from pH 1 to pH 9 for 1 week at 50° C. At pH 5 and higher, the free base was stable, and after accounting for minor initial impurities, degradation was less than 2%. At pH 3, degradation was about 4% and at pH 1, degradation was about 15%. The stability was also tested in water and several organic solvents (1 week at 50° C.).
Without being bound by mechanism, the stability difference between the free base and phosphate salt may be due to the higher aqueous solubility of the phosphate salt compared to the free base, as well as the tendency of the phosphate salt to cause the pH of water to decrease, which may increase the rate of degradation.

[1] = Polymorphic stability by XRPD (equilibration, crystallization, evaporation, precipitation, compression, granulation); design: key to XRPD Result, crystallization by evaporation: —: no change detected; conditions: for XRPD Result, crystallization by evaporation: unstirred; for XRPD after crystallization from hot saturated solution: dissolved at 60° C., cooled in ice bath
Description: Slurries of samples were stirred at high speed for 24 hours at 25±0.5° C., filtered, and the solid collected analyzed by XRPD.
About 20 mg of the phosphate salt (form A) was equilibrated with 2 ml of a variety of solvents for at least 24 h at room temperature. Then the solution was filtered and the residue dried overnight at 50° C. under house vacuum. The solid obtained was investigated by XRPD. […]
About 20 mg of the phosphate salt (form A) was also equilibrated at about 50° C. with 2 ml solvent for at least 24 h. Then the solution was filtered and the residue dried overnight at 50° C. under house vacuum. The solid obtained was investigated by XRPD.
About 20 mg of the phosphate salt (form A) was dissolved in 2 ml solvent at 60° C. The solution was filtered. The clear filtrate obtained was cooled in an ice bath and agitated. The precipitate was collected on a filter, dried and investigated by XRPD.
About 20 mg of the phosphate salt (form A) was mixed with 2 ml solvent at 25° C. After stirring overnight, the solution was filtered. The filtrate was placed under nitrogen flow to evaporate the solvent. The residual solid was collected and investigated. The above evaporation was performed without stirring. Upon evaporation from THF/water (1:1) without stirring, a solid with XRPD pattern similar to that of the B form (see FIG. 1C), was obtained once. Subsequently, under these conditions, amorphous material, rather than form B, was obtained.
The same experiments (as described above for the 25° C. evaporation) were performed at 50° C.
Two different solvent combinations were tested. The phosphate salt (form A) was dissolved in DMSO where its solubility was high. A solvent (the anti-solvent) in which the form A was highly insoluble was added to the solution. The precipitate was collected on a filter, dried, and investigated by XRPD.
The phosphate salt (form A, 300 mg) was compressed for 5 minutes at 4000 pounds with a hydraulic press (diameter of the tablets 8 mm).
A solvent (water or ethanol) was added drop wise to the phosphate salt (form A) placed in a mortar until the solid in the mortar was sufficiently wet, and ground using a pestle until a paste-like consistency was obtained. The paste was dried at around 40° C. and under reduced pressure for >8 hours.

Solid state stability = conditions: one week at 80° C., sealed containers and 75% relative humidity, alone and with excipients as 1% mixture
Description: In the solid state, the samples were stressed for one week at 80° C., in sealed containers and under 75% relative humidity. […] The amount of degradation products of the anhydrous free base as assessed by HPLC was 1% or less (based on peak area), while the degradation of the phosphate salt accounted for 1.4% or less.

[2] = Determination of solubility (equilibration in solvent, filtrate by HPLC)
Description: Excess free base (free base of Formula I), its phosphate salt (the monophosphoric acid salt of the free base), or another acid salt was equilibrated in solvents for 1 day at 25±0.5° C. The resultant slurry was filtered and the filtrate used for solubility determination by HPLC.
Solubility of the monohydrate of the anhydrous and monohydrate free base was measured in various aqueous media (e.g., pH 6.8 buffer, pH 4.5 buffer, pH 1 buffer), including simulated and actual human fluids.
The human fluids were collected from 12 human subjects.
Solubility studies of the phosphate salt were undertaken in aqueous media and in human fluids at 24 hours.

[3] = Intrinsic dissolution rate; conditions: 37° C., disc 200 rpm, 290 nm
Description: The intrinsic dissolution rate measurements were carried out in 0.5 cm^2 VanKel punch and die assemblies at a pellet pressure of 2000 pounds. […]
The intrinsic dissolution rate was determined for the phosphate salt in water, pH=6.8 and 0.1N HCl, and for the free base monohydrate in pH=6.8, 4.5 and 0.1N HCl. The measurements were carried out on a VanKel instrument using a Cary UV/VIS spectrophotometer (Table 2).

Which results are given for `CCN1CCN(c2ccc(Nc3cc(N(C)C(=O)Nc4c(Cl)c(OC)cc(OC)c4Cl)ncn3)cc2)CC1` [Free Base, 3-(2,6-Dichloro-3,5-dimethoxy-phenyl)-1-{6-[4-(4-ethyl-piperazin-1-yl)-phenylamino]-pyrimidin-4-yl}-1-methyl-urea]?
degradation in solution (Solution stability; 1:1 acetonitrile/water, listed as free base): about 8%; degradation in solution (Solution stability; buffer pH 1): about 15%; degradation in solution (Solution stability; buffer pH 3): about 4%; degradation in solution (Solution stability; buffers pH 5 and higher): less than 2%; degradation in solution (Solution stability; isopropanol): stable; degradation in solution (Solution stability; water, listed as free base): stable; XRPD after equilibration with solvents ([1]; room temperature, water, ethanol, isopropanol, ethyl acetate, acetone): No new XRPD pattern was observed; amount of degradation products by HPLC (peak area) (Solid state stability; listed as anhydrous free base): ≤ 1%; Solubility in mg/ml after 24 h ([2]; Fasted State Simulated Intestinal Fluid (FaSSIF), listed as Anhydrous Free Base): 0.001 mg/mL (≈ 1.78 µM); Solubility in mg/ml after 24 h ([2]; Fed State Simulated Intestinal Fluid (FeSSIF), listed as Anhydrous Free Base): 0.148 mg/mL (≈ 264 µM); Solubility in mg/ml after 24 h ([2]; HIF, fed, listed as Anhydrous Free Base): 0.004 mg/mL (≈ 7.14 µM); Solubility in mg/ml after 24 h ([2]; Human gastric fluid (HGF), listed as Anhydrous Free Base): 0.001 mg/mL (≈ 1.78 µM); Solubility in mg/ml after 24 h ([2]; Human intestinal fluid (HIF) fasted, listed as Anhydrous Free Base): 0.002 mg/mL (≈ 3.57 µM); Solubility in mg/ml after 24 h ([2]; Simulated Gastric Fluid (SGF), listed as Anhydrous Free Base): 0.0497 mg/mL (≈ 88.7 µM); solubility in common organic solvents (in words) ([2]; listed as anhydrous free base): sparingly to slightly soluble; Solubility ([2]; initial solubility test, Water): 1 µg/mL (≈ 1.78 µM); Solubility ([2]; initial solubility test, pH3 Buffer): 200 µg/mL (≈ 357 µM); solubility at 24 h ([2]; pH 1 HCl, 25 °C, pH 1, simulated gastric fluid, thermodynamic from solid, pH 1 HCl, read-out: Solubility in mg/ml after 24 h): 0.052 mg/mL (≈ 92.8 µM); Solubility ([2]; pH 6.8 buffer, listed as anhydrous free base): ca. 0.00004 mg/mL; Solubility in mg/ml after 24 h ([2]; ph 4.5 Acetate, listed as Anhydrous Free Base): 0.008 mg/mL (≈ 14.3 µM); Solubility in mg/ml after 24 h ([2]; ph 6.8 Phosphate): <LOQ*; Solubility ([2]; water (free base: pH 6.67), listed as anhydrous free base): ~0.09 µg/mL (≈ 0.161 µM); Intrinsic DR value ([3]; HCl 0.1N, listed as Anhydrous Free Base): 0.28 mg/min/cm^2; Intrinsic DR value ([3]; Water, listed as Anhydrous Free Base): 0.01 mg/min/cm^2

Which results are given for `CCN1CCN(c2ccc(Nc3cc(N(C)C(=O)Nc4c(Cl)c(OC)cc(OC)c4Cl)ncn3)cc2)CC1` [Phosphate salt (form A)]?
degradation in solution (Solution stability; 1:1 acetonitrile/water, listed as phosphate salt): ~70%; degradation in solution (Solution stability; acetonitrile, form A): stable; degradation in solution (Solution stability; methanol, form A): about 8%; degradation in solution (Solution stability; water, listed as phosphate salt): about 45%; XRPD after compression ([1]; 300 mg, 5 minutes at 4000 pounds, hydraulic press): No change of crystalline modification; XRPD after crystallization by evaporation ([1]; 25° C., solution stirred during evaporation): form A was consistently obtained; XRPD after crystallization by evaporation ([1]; 25° C., without stirring, 1:1 solutions of water with ethanol, 2-propanol, acetone, tetrahydrofuran): amorphous material was obtained; XRPD after crystallization by evaporation ([1]; 50° C., solution stirred): Form A was also obtained; XRPD Result, crystallization by evaporation ([1]; 50° C., 2-propanol/water 1:1): —; XRPD Result, crystallization by evaporation ([1]; 50° C., Acetone/water 1:1): —; XRPD Result, crystallization by evaporation ([1]; 50° C., Acetonitrile/water 1:1): Amorphous; XRPD Result, crystallization by evaporation ([1]; 50° C., Ethanol/water 1:1): Amorphous; XRPD Result, crystallization by evaporation ([1]; 50° C., Methanol/water 1:1): —; XRPD Result, crystallization by evaporation ([1]; 50° C., Tetrahydrofuran/water 1:1): —; XRPD after equilibration with solvents ([1]; at least 24 h at about 50° C., solvents of Table 7): No new XRPD pattern was observed; XRPD after equilibration with solvents ([1]; at least 24 h at room temperature, solvents of Table 6): No new XRPD pattern was observed; XRPD after crystallization from hot saturated solution ([1]; 1:1 solutions of water with methanol, ethanol, 2-propanol, acetone, tetrahydrofuran): No change in polymorphic form; XRPD after crystallization from hot saturated solution ([1]; DMSO): form change noted; XRPD after precipitation by addition of anti-solvent ([1]; dissolved in DMSO, anti-solvents methanol, ethanol, isopropanol, acetone, acetonitrile, THF, ethyl acetate, propyl acetate, toluene, methyl t-butyl ether, 1,4-dioxane, methylene chloride): No change in Form; XRPD after granulation ([1]; wetted with water or ethanol, ground, dried at around 40° C.): no changes in the XRPD spectra; amount of degradation products by HPLC (peak area) (Solid state stability): ≤ 1.4%; Solubility in mg/ml after 24 h ([2]; Fasted State Simulated Intestinal Fluid (FaSSIF), listed as Phosphate Salt): 0.003 mg/mL; Solubility in mg/ml after 24 h ([2]; Fed State Simulated Intestinal Fluid (FeSSIF), listed as Phosphate Salt): 1.067 mg/mL; Solubility in mg/ml after 24 h ([2]; HIF, fed, listed as Phosphate Salt): 0.00141 mg/mL; Solubility in mg/ml after 24 h ([2]; Human gastric fluid (HGF), listed as Phosphate Salt): 0.0115 mg/mL; Solubility in mg/ml after 24 h ([2]; Human intestinal fluid (HIF) fasted, listed as Phosphate Salt): 0.00223 mg/mL; Solubility in mg/ml after 24 h ([2]; Simulated Gastric Fluid (SGF), listed as Phosphate Salt): 0.088 mg/mL; solubility in common organic solvents (in words) [2]: sparingly soluble; Solubility ([2]; initial solubility test, Water, listed as Phosphate): 1700 µg/mL; Solubility ([2]; initial solubility test, pH3 Buffer, listed as Phosphate): 39 µg/mL; Solubility in mg/ml after 24 h ([2]; pH 1 HCl, listed as Phosphate Salt): 0.089 mg/mL; Solubility ([2]; pH 6.8 buffer): ca. 0.00009 mg/mL; Solubility in mg/ml after 24 h ([2]; ph 4.5 Acetate, listed as Phosphate Salt): 0.731 mg/mL; Solubility ([2]; water (free base: pH 6.67)): 1300 µg/mL; Intrinsic DR value ([3]; HCl 0.1N): 1.0661 mg/min/cm^2; Intrinsic DR value ([3]; Water): 0.3279 mg/min/cm^2; Intrinsic DR value ([3]; pH = 6.8): 0.0056 mg/min/cm^2
